Measured values published in US20020028790A1, “Use of agonists or antagonists of P2 purinoceptors for the prevention glutamate-evoked cytotoxicity” (priority 1995, published 2002).

Tests used:
[1] = tested on: cerebellar granule neurons; experiment: Glutamate-evoked cytotoxicity in cerebellar granule primary cultures (cell survival by count of intact viable nuclei); format: cell-based; conditions: for cellular survival / abolition of the cytotoxic action of glutamate: 100 μM compound in the simultaneous presence of 100 μM glutamate (acute exposure); for total neuronal population protected from cell death: incubated for the next 20 hours
Source text: Always according to the present invention, these compounds are used to prevent glutamate-evoked cytotoxicity in the nervous system's cells, particularly in CNS neurons. As a cellular model system for CNS neurons we have adopted postnatal rat cerebellar neurons. These cells, which are among the best characterized primary neuronal cultures, when isolated from postnatal rat cerebellum (Lasher R. S., and Zagon I. S., Brain Res. 41, 428-438, 1972), develop in vitro their mature phenotype as interneurons which use glutamate as a neurotransmitter and furthermore constitute an excellent model system for the study of glutamate-mediated cytotoxicity.
By exposing granule neurons to 100 μM glutamate for 15-30 min is obtained (after 15-20 hours) 80-100% of total cell death. […] The effects of basilen blue on cerebellar granule cell morphology reveal, despite the exposure to glutamate, which otherwise induces complete cell death, apparently healty-looking cell bodies that do bear a dense network of highly branching processes. Adhesion and neurites fasciculation are also preserved by basilen blue.
Basilen Blue prevents cytotoxicity induced by glutamate in cerebellar granule primary cultures: effects of dose-response and modality of addition. Replicate cerebellar granule cultures at 8 DIV were exposed for 25 min to 100 μM glutamate, in the simultaneous presence of different concentrations of basilen blue (FIG. 1). After 20 hours, the cultures were assessed for cultures were assessed for cell survival by direct count of intact viable nuclei. The asterisk represents the % of nuclei obtained after simultaneous addition to the cells of 100 μM glutamate and 100 μM caffeine. In FIG. 2, replicate cerebellar granule cultures at 8 DIV were exposed for 25 min to 100 μM glutamate. At different time after glutamate withdrawl, basilen blue (100 μM) was added to the medium until the cultures, 20 hours later, were assessed for cell survival by direct count of intact viable nuclei. The asterisk represents the % of nuclei obtained after simultaneous addition to the cells of 100 μM glutamate and 100 μM basilen blue. In FIG. 3, replicate cultures were pretreated in the presence of 100 μM basilen blue for different time, before the addition of 100 μM glutamate for 25 min (performed in the absence of basilen blue). After 20 hours the cultures were assessed for cell survival.
The asterisk represents the % of nuclei obtained after simultaneous addition to the cells of 100 μM glutamate and 100 μM basilen blue. Counts represent means±SEM (n=4) and 100% of cell survival represents 1.75−2×10^6 total cells.
METHODS. Approximately 20 hours after exposure of granule cells to glutamate, the culture medium was removed and replaced with 1 ml of a detergent-containing lysing solution (0.5% ethyl hexadecyl dimethyl—ammonium bromide, 0.28% acetic acid, 0.5% Triton X-100, 3 mM NaCl, 2 mM MgCl2, in PBS pH 7.4 diluted 1/10).
After 1-2 minutes, the cells were triturated a few times, providing a uniform uspension of single, intact viable nuclei. The latter were quantified by ounting in a hemacytometer. Broken or damaged nuclei were not included in the counts.
Culturing cerebellar granule cells in the presence of AMPPNP: modulation of glutamate-dependent cell death, Ca^++ uptake and aspartate release. Primary cerebellar granule cultures were prepared and starting at 1 DIV some of time were daily supplemented with 100 μM AMPPNP.(FIG. 6) At 8 DIV, after two washes, some of the cultures were incubated at 20° C. for 25 min with 100 μM glutamate. The following day, they were assessed for cell survival, as previously described.

[2] = tested on: cerebellar granule neurons; experiment: Glutamate-evoked Ca2+ uptake in cerebellar granule cells; format: cell-based, rat
Description: Glutamate-dependent neurotoxicity is often accompanied also in cerebellar granule neurons with increase in intracellular Ca^2+ via a multistep process. […] Also this value is in accordance with the IC50 found for inhibition of ATP binding, cytotoxicity and aspartate release. The basilen blue-dependent inhibition occurs when Ca^2+ uptake is measured for short (1 min) or for longer times (3, 10, and 25 min). The cronic exposure of granule neurons for 8 days to 100 μM AMPPNP inhibits by 50-70% glutamate-evoked Ca^2+ influx, similarly to the inhibition of cytotoxicity and aspartate release.
(§1) (FIG. 7) Replicate cerebellar granule cultures at 8 DIV were incubated for 1 min in Locke's solution in the presence of 45 Ca^++ (1 μCi/ml), with or without 100 μM glutamate, and were then assessed for Ca^++ influx. (FIG. 8) Replicate cerebellar granule cultures at 8 DIV were incubated for 5 min in Locke's solution, in the presence of [^3H] D-2,3 aspartic acid (1 μCi/ml, final concentration 40 nM) and were then assessed for aspartate release, in the presence or absence of 100 μM glutamate. Data are expressed as means±SEM (n=3).
(§2) Basilen Blue inhibits release of aspartate and uptake of Ca^++ induced by glutamate in cerebellar granule cells. (FIG. 9) Replicate cerebellar granule cultures at 8 DIV were incubated for 5 min in Locke's solution in the presence of [^3H] D-2,3 aspartic acid (1 μCi/ml, final concentration 40 nM). After two washes, the cultures were then incubated for 1 min in Locke's solution with or without 100 μM glutamate and in the presence of different concentrations of basilen blue. The buffer removed from the cultures during this release phase was collected into vials and counted for radioactivity. The asterisk represents the release of aspartate obtained in the simultaneous presence of 100 μM glutamate and 100 μM caffeine. Cells were dissolved in 0.1 M NaOH and protein concentrations were determined by the method of Bradford, with bovine serum albumin as standard. (FIG. 10) Replicate cerebellar granule cultures at 8 DIV were incubated for 1 min in Locke's solution in the presence of 45 Ca^++ (1 μCi/ml), with our without 100 μM glutamate, and in the simultaneous presence of different concentrations of basilen blue. After two washes with ice-cold 154 mM choline chloride, 2 mM EDTA, the cells were lysed in 0.1 M NaOH and aliquots were collected for measuring Ca^++ influx (by radioactive counting) and protein concentration. The asterisk represents the Ca^++ influx obtained in the simultaneous presence of 100 μM glutamate and 100 μM caffeine. Data are expressed as means±SEM (n=3).

[3] = tested on: cerebellar granule neurons; experiment: Glutamate-induced release of [3H] aspartate from cerebellar granule cells; format: cell-based, rat
Source text: Since D-[^3H] aspartate release has been often used as a measure of the functional state of cerebellar granule neurons cultured in vitro and depolarization- or glutamate-evoked aspartate release is a feature progressively aquired by these cells along with neuronal maturation, we decided to test this parameter to further study the biological effects and possible mechanisms used by basilen blue in the prevention of cell death. We find that basilen blue inhibits glutamate-induced release of [^3H] aspartate with an IC50 of about 10 μM. […] Also a cronic exposure of granule neurons for 8 days to 100 μM AMPPNP inhibits by 70-80% the glutamate-evoked release of [^3H] aspartate.
as §1, §2

[4] = tested on: membranes of granule neurons ([3H] ATP binding); experiment: Binding of [3H] ATP to cerebellar granule cell membranes; design: species or system rat; conditions: 1 h at 4° C, read-out: IC50 for inhibition of binding of [3H] ATP to membranes
Description: (§3) Basilen blue inhibits binding of [^3H] ATP to membranes of granule neurons with an IC50 of about 10 μM, that corresponds to the IC50 that prevents glutamate-evoked cytotoxicity. Binding studies with [^3H]
Basilen Blue inhibits binding of ATP to cerebellar granule cell membranes, but to uptake of aspartate. Membranes were prepared from 8 DIV cerebellar granule ells and 20 μg of protein were incubated with [^3H] ATP (0.5 μCi/ml, final concentration […]) (FIG. 4), in the presence of different concentrations of basilen blue, for 1 h at 4° C. Specific binding is shown and counts represent means±SEM (n=3). The asterisk represents the binding performed in the presence of 100 μM caffeine. In FIG. 5, replicate cerebellar granule cultures at 8 DIV were washed wice and incubated for different times in Locke's solution with [^3H] […] After two washes, cells were dissolved in 0.1 M NaOH and counted for incorporated radioactivity by liquid scintillation counting. […] Protein concentrations were determined by the method of Bradford with ovine serum albumin as standard.
METHODS. […] ATP, the samples (1 ml) were vacuum-filtered through Whatman GF/B glass fiber filters and the filters were immediately washed (3×4 s) with 5 ml of 50 mM Tris-HCl (pH 7.4), air dried and assessed for specifically bound radioactivity by liquid scintillation counting.

[5] = tested on: intact cells (granule neurons, [3H] ATP binding); experiment: Binding of [3H] ATP to intact cells; design: species or system rat
Description: as §3

[6] = tested on: cerebellar granule neurons; experiment: Uptake of [3H] aspartate by cerebellar granule cultures; format: cell-based, rat; conditions: same basilen blue treatments as for cytotoxicity
Description: The effects of basilen blue on protection from cytotoxicity are linear with time and depend on the modality of somministration of the compound. When basilen blue is added to the cells 10 min after glutamate, and then incubated with granule neurons for only 15 min, it protects from cell death 60-70% of the entire neuronal population; if somministered only for the last 5 min of treatment of the cells with glutamate, basilen blue sustains survival of 25-40% of total neurons. When instead it is added 1-2 min or 30 min or 2 hours after exposure of granule neurons to glutamate (and then incubated with the cells for the next 20 hours) basilen blue protects from cell death respectively 55-70%, 30% and 10% of the total neuronal population. When it is added before (not during or after) exposure of granule neurons to glutamate, basilen blue requires a pretreatment of at least 20-25 hours in order to prevent by 70-80% the cytotoxic action of glutamate. Inhibition of aspartate uptake is not obtained as a consequence of these same treatments.
Basilen Blue inhibits binding of ATP to cerebellar granule cell membranes, but to uptake of aspartate. […] After two washes, cells were dissolved in 0.1 M NaOH and counted for incorporated radioactivity by liquid scintillation counting. […] Protein concentrations were determined by the method of Bradford with ovine serum albumin as standard.

[7] = chronic exposure for 8 days to 100 μM

Cn1c(=O)c2c(ncn2C)n(C)c1=O [Caffeine]
abolition of the cytotoxic action of glutamate ([1]; up to 100 μM): does not abolish

Nc1c(S(=O)(=O)O)cc(Nc2ccc(Nc3nc(Cl)nc(Nc4ccccc4S(=O)(=O)O)n3)c(S(=O)(=O)O)c2)c2c1C(=O)c1ccccc1C2=O [cibacron blue, Cibacron Blue 3GA]
prevention of glutamate-evoked cell death (in words) [1]: effective

Nc1ncnc2c1ncn2C1OC(COP(=O)(O)OP(=O)(O)NP(=O)(O)O)C(O)C1O (stereo not drawn) [AMPPNP, 5-adenylylimidodiphosphate]
inhibition of glutamate-evoked Ca2+ influx [2, 7]: 50-70% | cellular survival / abolition of the cytotoxic action of glutamate [1]: not effective | inhibition of glutamate-induced cytotoxicity ([1]; cells cultured in continuous presence of 100 μM compound from day 1 (not later than day 2) in vitro): 50-60% | inhibition of glutamate-evoked release of [3H] aspartate [3, 7]: 70-80%

Basilen Blue E 3G
IC50 [4]: ~10 µM | IC50 ([2]; 100 μM glutamate, read-out: IC50 for inhibition of glutamate-evoked Ca2+ uptake): ~10 µM | extent of inhibition of glutamate-evoked Ca2+ uptake ([2]; uptake measured for 1, 3, 10 and 25 min): almost completely abolishes | basal Ca2+ uptake ([2]; without glutamate): not basal | inhibition of [3H] ATP binding to intact cells [5]: as effective | inhibition of aspartate uptake [6]: not obtained | cellular survival / abolition of the cytotoxic action of glutamate [1]: completely sustains cellular survival | IC50 ([1]; 100 μM glutamate, compound present simultaneously, read-out: IC50 for prevention of glutamate-evoked cell death): 10 to 20 µM | total neuronal population protected from cell death ([1]; added 1-2 min after exposure to glutamate): 55-70% | neuronal population protected from cell death ([1]; added 10 min after glutamate, then incubated with neurons for only 15 min): 60-70% | total neuronal population protected from cell death ([1]; added 30 min after exposure to glutamate): 30% | total neuronal population protected from cell death ([1]; added 2 hours after exposure to glutamate): 10% | adhesion and neurites fasciculation ([1]; despite exposure to glutamate, 100 μM basilen blue): preserved | survival of total neurons ([1]; given only for the last 5 min of glutamate treatment): 25-40% | acute response (rapid swelling of the cell body and loss of brightness) ([1]; within the first 5 min of treatment with glutamate, basilen blue added): prevented | IC50 ([3]; 100 μM glutamate, read-out: IC50 for inhibition of glutamate-induced release of [3H] aspartate): ~10 µM | extent of inhibition of glutamate-induced [3H] aspartate release ([3]; release measured for 1, 3, 10, 25 min or in presence of Mg2+): almost complete | basal release of [3H] aspartate ([3]; without glutamate): does not affect
